Assay results: ChEMBL document CHEMBL5537118, “Synthesis of cinnamoyl tethered indoline derivatives with anti-inflammatory and antioxidant activities” (Eur J Med Chem, 2024)
Active and inactive are the calls of the source. The calls are words filed in the database; no cut-off is given here.

Assays:
RAW264.7 [1] = test: Inhibition of NF-kappaB activation in LPS-induced mouse RAW264.7 cells assessed as reduction in IkappaBalpha degradation at 0.5 to 2 uM by Western blot analysis; type: cell-based; conditions: dose 0.5-2 µM
Mus musculus [2] = test: Antiinflammatory activity in carrageenan-induced Kunming mouse model of paw edema assessed as edema inhibition at 30 mg/kg, IG pretreated for 1 hr followed by carrageenan administration and measured after 3 hrs relative to control; type: functional; conditions: po, time 4 hrs
Mus musculus [3] = test: Antiinflammatory activity in carrageenan-induced Kunming mouse model of paw edema assessed as edema inhibition at 10 mg/kg, ip pretreated for 1 hr followed by carrageenan administration and measured after 1 hr relative to control; type: functional; conditions: time 2 hrs
Mus musculus [4] = test: Antiinflammatory activity in carrageenan-induced Kunming mouse model of paw edema assessed as paw volume at 30 mg/kg, ip pretreated for 1 hr followed by carrageenan administration and measured immediately by digital plethysmometer (reference value: 0.116 +/- 0.042 mL); type: functional
Mus musculus [5] = test: Antiinflammatory activity in carrageenan-induced Kunming mouse model of paw edema assessed as edema inhibition at 10 mg/kg, ip pretreated for 1 hr followed by carrageenan administration and measured after 3 hrs relative to control; type: functional; conditions: time 4 hrs
RAW264.7 [6] = test: Inhibition of NF-kappaB activation in LPS-induced mouse RAW264.7 cells assessed as inhibition of p65 phosphorylation by measuring reduction in p-p65/p65 expression at 0.5 to 2 uM by Western blot analysis; type: cell-based; conditions: dose 0.5-2 µM
Mus musculus [7] = test: Antiinflammatory activity in carrageenan-induced Kunming mouse model of paw edema assessed as paw volume at 1 mg/kg, ip pretreated for 1 hr followed by carrageenan administration and measured immediately by digital plethysmometer (reference value: 0.116 +/- 0.042 mL); type: functional
RAW264.7 [8] = test: Antiinflammatory activity in LPS-induced mouse RAW264.7 cells assessed as reduction in IL-6 level incubated for 24 hrs by ELISA; type: functional, cell-based
Mus musculus [9] = test: Antiinflammatory activity in carrageenan-induced Kunming mouse model of paw edema assessed as edema inhibition at 1 mg/kg, ip pretreated for 1 hr followed by carrageenan administration and measured after 5 hrs relative to control; type: functional; conditions: time 6 hrs
Mus musculus [10] = test: Antiinflammatory activity in carrageenan-induced Kunming mouse model of paw edema assessed as edema inhibition at 30 mg/kg, IG pretreated for 1 hr followed by carrageenan administration and measured after 1 hr relative to control; type: functional; conditions: po, time 2 hrs
Mus musculus [11] = test: Antiinflammatory activity in carrageenan-induced Kunming mouse model of paw edema assessed as paw volume at 30 mg/kg, IG pretreated for 1 hr followed by carrageenan administration and measured immediately by digital plethysmometer (reference value: 0.144 +/- 0.026 mL); type: functional
RAW264.7 [12] = test: Inhibition of ROS burst in rotenone-stimulated mouse RAW264.7 cells assessed as reduction in ROS level at 1 uM pretreated for 30 mins followed by rotenone addition and measured after 4 hrs by DCFH-DA staining based flow cytometry analysis relative to control; type: functional; conditions: time 4.5 hrs
Mus musculus [13] = test: Antioxidant activity in ip dosed carrageenan-induced Kunming mouse model of paw edema assessed as increase in HO-1 protein expression in paw tissue pretreated for 1 hr followed by carrageenan administration and measured after 5 hrs by Western blot analysis; type: functional, organism-based; conditions: dose 1-30 mg/kg, time 6.0 hrs
Mus musculus [14] = test: Antiinflammatory activity in carrageenan-induced Kunming mouse model of paw edema assessed as reduction in iNOS protein expression in paw tissue at 1 to 30 mg/kg, ip pretreated for 1 hr followed by carrageenan administration and measured after 5 hrs by Western blot analysis; type: functional, organism-based; conditions: dose 1-30 mg/kg, time 6.0 hrs
Mus musculus [15] = test: Antiinflammatory activity in carrageenan-induced Kunming mouse model of paw edema assessed as edema inhibition at 30 mg/kg, ip pretreated for 1 hr followed by carrageenan administration and measured after 1 hr relative to control; type: functional; conditions: time 2 hrs
RAW264.7 [16] = test: Inhibition of NF-kappaB activation in LPS-induced mouse RAW264.7 cells assessed as inhibition of IkappaBalpha phosphorylation by measuring reduction in p-IkappaBalpha/IkappaBalpha expression at 0.5 to 2 uM by Western blot analysis; type: cell-based; conditions: dose 0.5-2 µM
RAW264.7 [17] = test: Inhibition of ROS burst in rotenone-stimulated mouse RAW264.7 cells assessed as reduction in ROS level at 0.5 to 2 uM pretreated for 30 mins followed by rotenone addition and measured after 4 hrs by DCFH-DA staining based flow cytometry analysis; type: functional, cell-based; conditions: dose 0.5-2 µM, time 4.5 hrs
Mus musculus [18] = test: Antiinflammatory activity in carrageenan-induced Kunming mouse model of paw edema assessed as edema inhibition at 1 mg/kg, ip pretreated for 1 hr followed by carrageenan administration and measured after 3 hrs relative to control; type: functional; conditions: time 4 hrs
Mus musculus [19] = test: Antiinflammatory activity in carrageenan-induced Kunming mouse model of paw edema assessed as paw volume at 30 mg/kg, IG pretreated for 1 hr followed by carrageenan administration and measured after 1 hr by digital plethysmometer (reference value: 0.407 +/- 0.023 mL); type: functional; conditions: time 2 hrs

With `O=C(/C=C/c1ccc(O)c(O)c1)NCCCN1CCc2cc(Cl)ccc21` the inhibition (RAW264.7 [1]) was “Active”, the inhibition in vivo at 30 mg/kg (Mus musculus [2]) was 50% and the inhibition in vivo at 10 mg/kg (Mus musculus [3]) was 75.7%. For the same molecule, the Activity (Mus musculus [4]) was 0.131 mL, the inhibition in vivo at 10 mg/kg (Mus musculus [5]) was 82.8% and the inhibition (RAW264.7 [6]) was “Active”. For the same molecule, the Activity (Mus musculus [7]) was 0.131 mL, the Activity (RAW264.7 [8]) was “Dose-Dependent Effect” and the IC50 (RAW264.7 [8]; RAW264.7, 24 h) was 1730 nM. It also gave an inhibition in vivo at 1 mg/kg (Mus musculus [9]) of 57.3%, an inhibition in vivo at 30 mg/kg (Mus musculus [10]) of 24.6% and an Activity (Mus musculus [11]) of 0.138 mL. For the same molecule, the inhibition at 1 µM (RAW264.7 [12]) was about 100%, the Activity (Mus musculus [13]) was “Dose-Dependent Effect” and the Activity (Mus musculus [14]) was “Active”. The inhibition in vivo at 30 mg/kg (Mus musculus [15]) was 87.1%, the inhibition (RAW264.7 [16]) was “Active” and the inhibition (RAW264.7 [17]) was “Active”. For the same molecule, the inhibition in vivo at 1 mg/kg (Mus musculus [18]) was 45.1% and the Activity (Mus musculus [19]) was 0.339 mL.
